Laboratory results reported in US20260167656A1, “PHOSPHORAMIDATE COMPOUNDS AND USES THEREOF” (ALLORION THERAPEUTICS INC, priority 2022, published 2026).

Experiments:
[1] = test system: non-small cell lung cancer cell line H460; experiment: In vitro human cancer cell line cytotoxicity (proliferation) assay in H460, CellTiter-Glo, 72 hours; type: cell-based; conditions: H460 cells, DMSO condition (no AKR1C3 inhibitor), read-out: CTG H460: Avg IC50 (nM) [Assay Condition: DMSO]
How it was run: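 IC50s in nM come from CellTiter-Glo viability read after 72 h of compound exposure. Compounds went in from 10 mM DMSO stocks onto H460 cells, which had been plated at 3×10^3 per well and grown 24 h beforehand at 37 °C, 5% CO2.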

[2] = test system: non-small cell lung cancer cell line H460; experiment: H460 proliferation assay in the presence of 3 uM ASP9521 (AKR1C3 specific inhibitor); type: cell-based, human; conditions: H460 cells, CellTiter-Glo, 72 hours, in the presence of 3 uM ASP9521 added 4 hours prior to compounds; read-out: CTG H460: Avg IC50 (nM) [Assay Condition: ASP9521]
How it was run: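 AKR1C3 blocked with 3 uM ASP9521 given 4 h ahead of test compounds. H460 cells, plated 24 h earlier, were then treated for 72 h at 37 °C in 5% CO2. CellTiter-Glo luminescence gave viability.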

SMILES	IC50 ([1]; Homo sapiens, NCI-H460, 72 h) [nM]	IC50 [2] [nM]	IC50 [1] [nM]
O=C(c1cccc(Oc2c([N+](=O)[O-])ccc3c2CCC3OP(=O)(N2CC2)N2CC2)c1)N1CCC(F)(F)CC1 (stereo not drawn) [Example 103]	< 10	811	–
O=C(c1cccc(Oc2c([N+](=O)[O-])ccc3c2CCC3OP(=O)(N2CC2)N2CC2)c1)N1CCC(F)(F)CC1 (stereo not drawn) [Example 104]	–	180	< 10
O=C(c1cccc(Oc2c([N+](=O)[O-])ccc3c2CCC3OP(=O)(N2CC2)N2CC2)c1)N1CCCOCC1 (stereo not drawn) [Example 105]	10 to 50	1300	–
O=C(c1cccc(Oc2c([N+](=O)[O-])ccc3c2CCC3OP(=O)(N2CC2)N2CC2)c1)N1CCCOCC1 (stereo not drawn) [Example 106]	–	416	< 10
O=C1CCCCN1c1cccc(Oc2c([N+](=O)[O-])ccc3c2CCC3OP(=O)(N2CC2)N2CC2)c1 (stereo not drawn) [Example 107]	10 to 50	6500	–
O=C1CCCCN1c1cccc(Oc2c([N+](=O)[O-])ccc3c2CCC3OP(=O)(N2CC2)N2CC2)c1 (stereo not drawn) [Example 108]	–	1710	< 10
O=C1COCCN1c1cccc(Oc2c([N+](=O)[O-])ccc3c2CCC3OP(=O)(N2CC2)N2CC2)c1 (stereo not drawn) [Example 109]	10 to 50	6450	–
O=C1COCCN1c1cccc(Oc2c([N+](=O)[O-])ccc3c2CCC3OP(=O)(N2CC2)N2CC2)c1 (stereo not drawn) [Example 110]	–	2420	< 10
O=C1CCCN1c1cccc(Oc2c([N+](=O)[O-])ccc3c2CCC3OP(=O)(N2CC2)N2CC2)c1 (stereo not drawn) [Example 111]	< 10	1100	–
O=C1CCCN1c1cccc(Oc2c([N+](=O)[O-])ccc3c2CCC3OP(=O)(N2CC2)N2CC2)c1 (stereo not drawn) [Example 112]	–	243	< 10
O=[N+]([O-])c1ccc2c(c1Oc1cccc(-n3cccn3)c1)CCC2OP(=O)(N1CC1)N1CC1 (stereo not drawn) [Example 113]	< 10	650	–
O=[N+]([O-])c1ccc2c(c1Oc1cccc(-n3cccn3)c1)CCC2OP(=O)(N1CC1)N1CC1 (stereo not drawn) [Example 114]	–	1280	< 10
O=[N+]([O-])c1ccc2c(c1Oc1cccc(-n3ccc(C4CC4)n3)c1)CCC2OP(=O)(N1CC1)N1CC1 (stereo not drawn) [Example 115]	10 to 50	4730	–
O=[N+]([O-])c1ccc2c(c1Oc1cccc(-n3ccc(C4CC4)n3)c1)CCC2OP(=O)(N1CC1)N1CC1 (stereo not drawn) [Example 116]	–	5560	10 to 50
Cn1cnc(-c2cccc(Oc3c([N+](=O)[O-])ccc4c3CCC4OP(=O)(N3CC3)N3CC3)c2)cc1=O (stereo not drawn) [Example 117]	–	1030	≥ 100
Cn1cnc(-c2cccc(Oc3c([N+](=O)[O-])ccc4c3CCC4OP(=O)(N3CC3)N3CC3)c2)cc1=O (stereo not drawn) [Example 118]	–	4510	10 to 50
Cc1noc(-c2cccc(Oc3c([N+](=O)[O-])ccc4c3CCC4OP(=O)(N3CC3)N3CC3)c2)n1 (stereo not drawn) [Example 119]	< 10	644	–
Cc1noc(-c2cccc(Oc3c([N+](=O)[O-])ccc4c3CCC4OP(=O)(N3CC3)N3CC3)c2)n1 (stereo not drawn) [Example 120]	–	2080	< 10
Cn1c(=O)oc2cc(Oc3c([N+](=O)[O-])ccc4c3CCC4OP(=O)(N3CC3)N3CC3)ccc21 (stereo not drawn) [Example 121]	< 10	33.8	–
CN1CC(=O)N(c2cccc(Oc3c([N+](=O)[O-])ccc4c3CCC4OP(=O)(N3CC3)N3CC3)c2)CC1=O (stereo not drawn) [Example 122]	10 to 50	3090	–
O=[N+]([O-])c1ccc2c(c1Oc1cccc(C(F)(F)F)c1)CCC2OP(=O)(N1CC1)N1CC1 (stereo not drawn) [Example 123]	< 10	572	–
O=[N+]([O-])c1ccc2c(c1Oc1cccc(OC(F)(F)F)c1)CCC2OP(=O)(N1CC1)N1CC1 (stereo not drawn) [Example 124]	< 10	547	–
O=[N+]([O-])c1ccc2c(c1Oc1ccccc1)OCCC2OP(=O)(N1CC1)N1CC1 (stereo not drawn) [Example 127, 7-nitro-8-phenoxy-3,4-dihydro-2H-1-benzopyran-4-yl bis(aziridin-1-yl)phosphinate]	10 to 50	291	–
CN(C)C(=O)c1cccc(Oc2c([N+](=O)[O-])ccc3c2OCCC3OP(=O)(N2CC2)N2CC2)c1 (stereo not drawn) [Example 128]	< 10	491	–
CN(C)C(=O)c1cccc(Oc2c([N+](=O)[O-])ccc3c2OCCC3OP(=O)(N2CC2)N2CC2)c1 (stereo not drawn) [Example 129]	–	982	10 to 50
O=[N+]([O-])c1ccc2c(c1Oc1ccc(-c3ccc(F)cc3)cc1)OCCC2OP(=O)(N1CC1)N1CC1 (stereo not drawn) [Example 132]	< 10	1250	–
O=[N+]([O-])c1ccc2c(c1Oc1ccc(-c3ccc(F)cc3)cc1)OCCC2OP(=O)(N1CC1)N1CC1 (stereo not drawn) [Example 133]	–	1620	10 to 50

SMILES	IC50 ([1]; Homo sapiens, NCI-H460, 72 h) [nM]	IC50 [2] [nM]	IC50 [1] [nM]
O=[N+]([O-])c1ccc2c(c1Oc1ccc(-c3ccccc3)cc1)OCCC2OP(=O)(N1CC1)N1CC1 (stereo not drawn) [Example 134]	10 to 50	1510	–
O=[N+]([O-])c1ccc2c(c1Oc1ccc(-c3ccccc3)cc1)OCCC2OP(=O)(N1CC1)N1CC1 (stereo not drawn) [Example 135]	–	482	< 10
CNC(=O)c1ccc(Oc2c([N+](=O)[O-])ccc3c2OCCC3OP(=O)(N2CC2)N2CC2)cc1 (stereo not drawn) [Example 136]	–	913	50 to 100
CNC(=O)c1ccc(Oc2c([N+](=O)[O-])ccc3c2OCCC3OP(=O)(N2CC2)N2CC2)cc1 (stereo not drawn) [Example 137]	–	538	< 10
O=[N+]([O-])c1cc2c(cc1Oc1ccc(-c3ccc(F)cn3)c(F)c1)C(OP(=O)(N1CC1)N1CC1)CC2 (stereo not drawn) [Example 142]	< 10	4130	–
O=[N+]([O-])c1cc2c(cc1Oc1ccc(-c3ccc(F)cn3)c(F)c1)C(OP(=O)(N1CC1)N1CC1)CC2 (stereo not drawn) [Example 143]	–	1720	< 10
O=[N+]([O-])c1cc2c(cc1Oc1ccc(-c3ccc(F)cc3)cc1)C(OP(=O)(N1CC1)N1CC1)CC2 (stereo not drawn) [Example 144]	< 10	347	–
O=[N+]([O-])c1cc2c(cc1Oc1ccc(-c3ccc(F)cc3)cc1)C(OP(=O)(N1CC1)N1CC1)CC2 (stereo not drawn) [Example 145]	–	1120	< 10
CN(C)C(=O)c1cccc(Oc2cc3c(cc2[N+](=O)[O-])CCC3OP(=O)(N2CC2)N2CC2)c1 (stereo not drawn) [Example 146]	< 10	453	–
CN(C)C(=O)c1cccc(Oc2cc3c(cc2[N+](=O)[O-])CCC3OP(=O)(N2CC2)N2CC2)c1 (stereo not drawn) [Example 147]	–	311	< 10
O=[N+]([O-])c1cc2c(cc1Oc1ccc(C3CC3)cc1)C(OP(=O)(N1CC1)N1CC1)CC2 (stereo not drawn) [Example 148]	< 10	955	–
O=[N+]([O-])c1cc2c(cc1Oc1ccc(C3CC3)cc1)C(OP(=O)(N1CC1)N1CC1)CC2 (stereo not drawn) [Example 149]	–	372	< 10
CN1Cc2cc(Oc3cc4c(cc3[N+](=O)[O-])CCC4OP(=O)(N3CC3)N3CC3)ccc2C1=O (stereo not drawn) [Example 154]	< 10	309	–
CN1Cc2cc(Oc3cc4c(cc3[N+](=O)[O-])CCC4OP(=O)(N3CC3)N3CC3)ccc2C1=O (stereo not drawn) [Example 155]	–	128	< 10
Cn1ccc2ccc(Oc3cc4c(cc3[N+](=O)[O-])CCC4OP(=O)(N3CC3)N3CC3)cc2c1=O (stereo not drawn) [Example 156]	10 to 50	895	–
Cn1ccc2ccc(Oc3cc4c(cc3[N+](=O)[O-])CCC4OP(=O)(N3CC3)N3CC3)cc2c1=O (stereo not drawn) [Example 157]	–	1240	10 to 50
CN1CCOc2ccc(Oc3cc4c(cc3[N+](=O)[O-])CCC4OP(=O)(N3CC3)N3CC3)cc2C1=O (stereo not drawn) [Example 158]	50 to 100	4680	–
CN1CCOc2ccc(Oc3cc4c(cc3[N+](=O)[O-])CCC4OP(=O)(N3CC3)N3CC3)cc2C1=O (stereo not drawn) [Example 159]	–	> 10000	≥ 100
O=C(c1ccc(Oc2cc3c(cc2[N+](=O)[O-])CCC3OP(=O)(N2CC2)N2CC2)cc1)N1CCOCC1 (stereo not drawn) [Example 160]	< 10	270	–
O=C(c1ccc(Oc2cc3c(cc2[N+](=O)[O-])CCC3OP(=O)(N2CC2)N2CC2)cc1)N1CCOCC1 (stereo not drawn) [Example 161]	–	339	< 10
O=C1c2cc(Oc3cc4c(cc3[N+](=O)[O-])CCC4OP(=O)(N3CC3)N3CC3)ccc2CN1C1COC1 (stereo not drawn) [Example 162]	< 10	969	–
O=C1c2cc(Oc3cc4c(cc3[N+](=O)[O-])CCC4OP(=O)(N3CC3)N3CC3)ccc2CN1C1COC1 (stereo not drawn) [Example 163]	–	1340	< 10
O=C1OCCN1c1ccc(Oc2cc3c(cc2[N+](=O)[O-])CCC3OP(=O)(N2CC2)N2CC2)cc1 (stereo not drawn) [Example 164]	< 10	237	–
O=C1OCCN1c1ccc(Oc2cc3c(cc2[N+](=O)[O-])CCC3OP(=O)(N2CC2)N2CC2)cc1 (stereo not drawn) [Example 165]	–	89.7	< 10
CN1CCc2ccc(Oc3cc4c(cc3[N+](=O)[O-])CCC4OP(=O)(N3CC3)N3CC3)cc2C1=O (stereo not drawn) [Example 166]	10 to 50	976	–
CN1CCc2ccc(Oc3cc4c(cc3[N+](=O)[O-])CCC4OP(=O)(N3CC3)N3CC3)cc2C1=O (stereo not drawn) [Example 167]	–	3150	10 to 50
Cn1c(=O)oc2cc(Oc3cc4c(cc3[N+](=O)[O-])CCC4OP(=O)(N3CC3)N3CC3)ccc21 (stereo not drawn) [Example 174]	< 10	244	–
